According to PMC10107436, “Persicamidines—Unprecedented Sesquarterpenoids with Potent Antiviral Bioactivity against Coronaviruses” (Angewandte Chemie (International Ed. in English), 2023):

How the values were obtained:
SARS-CoV-2 = assay: microbe, parasite or virus in culture; format: cell-based; conditions: for IC50: Severe acute respiratory syndrome coronavirus 2, SARS-CoV-2 in A549_ACE2_TMPRSS2 cells, fluorescence, mean of three biological replicates; for selectivity index (CC50/IC50): CC50 in A549_ACE2_TMPRSS2 cells over IC50
hCoV-229E = assay: microbe, parasite or virus in culture; format: cell-based; conditions: Human coronavirus 229E
in vitro = conditions: human

## CO[C@@H]1C[C@H](O[C@H]2C[C@](C)(CO)[C@@H]3CC[C@@]4(C)[C@@H]5CC[C@@H]6[C@H](CC(=O)[C@]7(C)C8=COC(NC(C)C)=N[C@]8(C)[C@@H](O)[C@@H]8O[C@@]687)[C@@]5(C)CC[C@@H]4[C@@]3(C)[C@@H]2O)O[C@H](C)[C@H]1O [Persicamidine B, persicamidine B]
SARS-CoV-2
  IC50: 0.23 µM
hCoV-229E
  IC50: 0.0036 µM

## CO[C@@H]1C[C@H](O[C@H]2C[C@](C)(CO)[C@@H]3CC[C@@]4(C)[C@@H]5CC[C@@H]6[C@H](CC(=O)[C@]7(C)C8=COC(N[C@H](C)C(C)C)=N[C@]8(C)[C@@H](O)[C@@H]8O[C@@]687)[C@@]5(C)CC[C@@H]4[C@@]3(C)[C@@H]2O)O[C@H](C)[C@H]1O [Persicamidine C, persicamidine C]
SARS-CoV-2
  IC50: 0.074 µM
  selectivity index (CC50/IC50): > 50
hCoV-229E
  IC50: 0.0066 µM

## CO[C@@H]1C[C@H](O[C@H]2C[C@](C)(CO)[C@@H]3CC[C@@]4(C)[C@@H]5CC[C@@H]6[C@H](CC(=O)[C@]7(C)C8=COC(N[C@H](C)C(C)(C)C)=N[C@]8(C)[C@@H](O)[C@@H]8O[C@@]687)[C@@]5(C)CC[C@@H]4[C@@]3(C)[C@@H]2O)O[C@H](C)[C@H]1O [Persicamidine D, persicamidine D]
SARS-CoV-2
  IC50: 0.084 µM
  selectivity index (CC50/IC50): > 80
hCoV-229E
  IC50: 0.0052 µM

## CCNC1=N[C@@]2(C)C(=CO1)[C@@]1(C)C(=O)C[C@H]3[C@@H](CC[C@@H]4[C@]3(C)CC[C@H]3[C@@]4(C)CC[C@H]4[C@@](C)(CO)C[C@H](O[C@H]5C[C@@H](OC)[C@H](O)[C@@H](C)O5)[C@@H](O)[C@@]43C)[C@@]13O[C@H]3[C@@H]2O [Persicamidine E, persicamidine E]
SARS-CoV-2
  IC50: 0.25 µM
hCoV-229E
  IC50: 0.0053 µM

## CC[C@@H](C)NC1=N[C@@]2(C)C(=CO1)[C@@]1(C)C(=O)C[C@H]3[C@@H](CC[C@@H]4[C@]3(C)CC[C@H]3[C@@]4(C)CC[C@H]4[C@@](C)(CO)C[C@H](O[C@H]5C[C@@H](OC)[C@H](O)[C@@H](C)O5)[C@@H](O)[C@@]43C)[C@@]13O[C@H]3[C@@H]2O [Persicamidine A, persicamidine A]
SARS-CoV-2
  IC50: 0.13 µM
hCoV-229E
  IC50: 0.0038 µM

## CCC(CC)COC(=O)[C@H](C)N[P@](=O)(OC[C@H]1O[C@@](C#N)(c2ccc3c(N)ncnn23)[C@H](O)[C@@H]1O)Oc1ccccc1 [Remdesivir, reference compound]
SARS-CoV-2; SARS-CoV-2, antiviral compound control at 1 µM
  viral inhibition: full viral inhibition
SARS-CoV-2
  IC50: 0.03 µM
In vitro
  CC50: > 1 µM
hCoV-229E
  IC50: 0.0035 µM
